# Results: patent publication US9695154B2, “Heteroaryl inhibitors of sumo activating enzyme” (MILLENNIUM PHARMACEUTICALS, INC., priority 2013, dated 2017)
# Target: T1, recombinant human SAE enzyme (Homo sapiens, UniProt Q9UBT2)
# T1 sequence (Q9UBT2 1-640): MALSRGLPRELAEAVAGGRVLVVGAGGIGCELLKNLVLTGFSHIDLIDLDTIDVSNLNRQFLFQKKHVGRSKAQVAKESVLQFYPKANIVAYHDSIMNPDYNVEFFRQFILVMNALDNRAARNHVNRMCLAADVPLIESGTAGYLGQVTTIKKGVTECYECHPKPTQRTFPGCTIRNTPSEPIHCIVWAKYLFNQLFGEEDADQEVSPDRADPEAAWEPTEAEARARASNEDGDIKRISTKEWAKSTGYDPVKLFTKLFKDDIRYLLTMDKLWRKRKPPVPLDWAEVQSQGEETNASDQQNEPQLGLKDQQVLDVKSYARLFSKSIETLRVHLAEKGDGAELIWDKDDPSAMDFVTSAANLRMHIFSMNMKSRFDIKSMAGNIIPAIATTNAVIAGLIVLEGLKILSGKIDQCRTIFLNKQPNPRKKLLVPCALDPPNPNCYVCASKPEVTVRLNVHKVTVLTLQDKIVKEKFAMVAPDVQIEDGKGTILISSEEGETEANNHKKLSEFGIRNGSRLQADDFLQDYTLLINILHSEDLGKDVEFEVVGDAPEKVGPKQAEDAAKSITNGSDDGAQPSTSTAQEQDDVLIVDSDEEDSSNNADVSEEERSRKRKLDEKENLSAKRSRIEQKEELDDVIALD
# T1 sequence (Q9UBE0 1-346 partner): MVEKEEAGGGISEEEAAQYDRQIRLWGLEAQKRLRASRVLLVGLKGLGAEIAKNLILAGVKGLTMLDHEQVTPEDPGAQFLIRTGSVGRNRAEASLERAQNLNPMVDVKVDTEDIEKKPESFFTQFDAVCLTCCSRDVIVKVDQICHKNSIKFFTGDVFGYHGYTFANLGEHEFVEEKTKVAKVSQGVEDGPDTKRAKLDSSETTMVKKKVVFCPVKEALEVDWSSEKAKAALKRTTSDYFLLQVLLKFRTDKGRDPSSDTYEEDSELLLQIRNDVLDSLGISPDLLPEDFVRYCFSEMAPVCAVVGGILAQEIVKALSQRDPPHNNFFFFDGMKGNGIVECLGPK
# Test: SAE HTRF Enzyme Assay
# Assay type: biochemical
# Conditions: for IC50: class symbols A-C; for inhibition at 0.111 µM: compound concentration 0.111 μM, read-out: Percent Inhibition
# Outline: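 Measured as FRET after a 2 h antibody step: SAE (0.11 nM) thioester transfer of Sumo-Flag to Ubc9-GST, 0.5 μM ATP, 24° C for 105 min, quenched with 20 mM EDTA. Output is IC50 or percent inhibition at a single concentration.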
SMILES,IC50 [nM],inhibition at 0.111 µM [%]
"NS(=O)(=O)OC[C@H]1C[C@@H](Nc2ncncc2C(=O)c2ccn(Cc3ccc(Cl)c(C(F)(F)F)c3)n2)[C@H](O)[C@@H]1O [Compound I-34, [(1R,2R,3S,4R)-4-{[5-({1-[4-chloro-3-(trifluoromethyl)benzyl]-1H-pyrazol-3-yl}carbonyl)pyrimidin-4-yl]amino}-2,3-dihydroxycyclopentyl] methyl sulfamate]",< 10,99
"NS(=O)(=O)OC[C@H]1C[C@@H](Nc2ncncc2C(=O)c2ccn(Cc3cc(F)ccc3F)n2)C[C@@H]1O [Compound I-35, {(1R,2S,4R)-4-[(5-{[1-(2,5-difluorobenzyl)-1H-pyrazol-3-yl]carbonyl}pyrimidin-4-yl)amino]-2-hydroxycyclopentyl}methyl sulfamate]",< 10,95
"NS(=O)(=O)OC[C@H]1C[C@@H](Nc2ncncc2C(=O)c2cc(Cl)n(Cc3ccc(C(F)(F)F)o3)c2)[C@@H](F)[C@@H]1O [Compound I-36, [(1R,2R,3R,4R)-4-({5-[(5-chloro-1-{[5-(trifluoromethyl)-2-furyl]methyl}-1H-pyrrol-3-yl)carbonyl]pyrimidin-4-yl}amino)-3-fluoro-2-hydroxycyclopentyl]methyl sulfamate]",< 10,99
"CSCCn1ccc(C(=O)c2cncnc2N[C@@H]2C[C@H](COS(N)(=O)=O)[C@@H](O)C2)n1 [Compound I-37, [(1R,2S,4R)-2-hydroxy-4-{[5-({1-[2-(methylsulfanyl)ethyl]-1H-pyrazol-3-yl}carbonyl)pyrimidin-4-yl]amino}cyclopentyl]methyl sulfamate]",100 to 1000,42
"NS(=O)(=O)CC[C@H]1C[C@@H](Nc2ncncc2C(=O)c2ccn(Cc3cccc(Br)c3)n2)C[C@@H]1O [Compound I-38, 2-{(1R,2S,4R)-4-[(5-{[1-(3-bromobenzyl)-1H-pyrazol-3-yl]carbonyl}pyrimidin-4-yl)amino]-2-hydroxycyclopentyl}ethanesulfonamide]",100 to 1000,51
"NS(=O)(=O)OC[C@H]1C[C@@H](Nc2ncncc2C(=O)c2ccn(Cc3ccccc3OC(F)(F)F)n2)C[C@@H]1O [Compound I-39, [(1R,2S,4R)-2-hydroxy-4-{[5-({1-[2-(trifluoromethoxy)benzyl]-1H-pyrazol-3-yl}carbonyl)pyrimidin-4-yl]amino}cyclopentyl]methyl sulfamate]",< 10,98
"NS(=O)(=O)OC[C@H]1C[C@@H](Nc2ncncc2C(=O)c2ccn(Cc3cccc(Cl)c3)n2)[C@H](O)[C@@H]1O [Compound I-40, {(1R,2R,3S,4R)-4-[(5-{[1-(3-Chlorobenzyl)-1H-pyrazol-3-yl]carbonyl}pyrimidin-4-yl)amino]-2,3-dihydroxycyclopentyl}methyl sulfamate]",< 10,97
"COCc1ccc(Cn2ccc(C(=O)c3cncnc3N[C@@H]3C[C@H](COS(N)(=O)=O)[C@@H](O)[C@@H]3F)c2)o1 [Compound I-41, [(1R,2R,3R,4R)-3-fluoro-2-hydroxy-4-({5-[(1-{[5-(methoxymethyl)-2-furyl]methyl}-1H-pyrrol-3-yl)carbonyl]pyrimidin-4-yl}amino)cyclopentyl]methyl sulfamate]",< 10,94
"NS(=O)(=O)OC[C@H]1C[C@@H](Nc2ncncc2C(=O)c2ccn(Cc3cccc(I)c3)n2)[C@@H](F)[C@@H]1O [Compound I-42, {(1R,2R,3R,4R)-3-fluoro-2-hydroxy-4-[(5-{[1-(3-iodobenzyl)-1H-pyrazol-3-yl]carbonyl}pyrimidin-4-yl)amino]cyclopentyl}methyl sulfamate]",< 10,99
"NS(=O)(=O)OC[C@H]1C[C@@H](Nc2ncncc2C(=O)c2ccn(Cc3ccc(Cl)c(Br)c3)c2)C[C@@H]1O [Compound I-43, {(1R,2S,4R)-4-[(5-{[1-(3-bromo-4-chlorobenzyl)-1H-pyrrol-3-yl]carbonyl}pyrimidin-4-yl)amino]-2-hydroxycyclopentyl}methyl sulfamate]",< 10,98
"NS(=O)(=O)OC[C@H]1C[C@@H](Nc2ncncc2C(=O)c2cc(F)n(Cc3cccc(Br)c3)c2)[C@@H](F)[C@@H]1O [Compound I-44, {(1R,2R,3R,4R)-4-[(5-{[1-(3-Bromobenzyl)-5-fluoro-1H-pyrrol-3-yl]carbonyl}pyrimidin-4-yl)amino]-3-fluoro-2-hydroxycyclopentyl}methyl sulfamate]",< 10,99
"Cn1nc(C(F)(F)F)cc1Cn1ccc(C(=O)c2cncnc2N[C@@H]2C[C@H](COS(N)(=O)=O)[C@@H](O)C2)c1 [Compound I-45, [(1R,2S,4R)-2-hydroxy-4-({5-[(1-{[1-methyl-3-(trifluoromethyl)-1H-pyrazol-5-yl]methyl}-1H-pyrrol-3-yl)carbonyl]pyrimidin-4-yl}amino)cyclopentyl]methyl sulfamate]",10 to 100,93
"NS(=O)(=O)OC[C@H]1C[C@@H](Nc2ncncc2C(=O)c2ccn(Cc3ccc(C(F)(F)F)c(F)c3)n2)[C@H](O)[C@@H]1O [Compound I-46, [(1R,2R,3S,4R)-4-{[5-({1-[3-fluoro-4-(trifluoromethyl)benzyl]-1H-pyrazol-3-yl}carbonyl)pyrimidin-4-yl]amino}-2,3-dihydroxycyclopentyl]methyl sulfamate]",< 10,96
"NS(=O)(=O)OC[C@H]1C[C@@H](Nc2ncncc2C(=O)c2ccn(Cc3ccc(Cl)cc3)n2)C[C@@H]1O [Compound I-47, {(1R,2S,4R)-4-[(5-{[1-{4-chlorobenzyl)-1H-pyrazol-3-yl]carbonyl}pyrimidin-4-yl)amino]-2-hydroxycyclopentyl}methyl sulfamate]",< 10,98
"NS(=O)(=O)OC[C@H]1C[C@@H](Nc2ncncc2C(=O)c2ccn(Cc3ccc4ccccc4c3)n2)C[C@@H]1O [Compound I-48, {(1R,2S,4R)-2-hydroxy-4-[(5-{[1-(2-naphthylmethyl)-1H-pyrazol-3-yl]carbonyl}pyrimidin-4-yl)amino]cyclopentyl}methyl sulfamate]",< 10,96
"NS(=O)(=O)OC[C@H]1C[C@@H](Nc2ncncc2C(=O)c2ccn(Cc3sc4ccccc4c3Cl)c2)[C@@H](F)[C@@H]1O [Compound I-49, [(1R,2R,3R,4R)-4-{[5-({1-[(3-chloro-1-benzothiophen-2-yl)methyl]-1H-pyrrol-3-yl}carbonyl)pyrimidin-4-yl]amino}-3-fluoro-2-hydroxycyclopentyl]methyl sulfamate]",< 10,93
"NS(=O)(=O)OC[C@H]1C[C@@H](Nc2ncncc2C(=O)c2ccn(Cc3cc(C(F)(F)F)ccc3Cl)n2)C[C@@H]1O [Compound I-50, [(1R,2S,4R)-4-{[5-({1-[2-chloro-5-(trifluoromethyl)benzyl]-1H-pyrazol-3-yl}carbonyl)pyrimidin-4-yl]amino}-2-hydroxycyclopentyl]methyl sulfamate]",< 10,99
"Cc1ccnc(Cn2ccc(C(=O)c3cncnc3N[C@@H]3C[C@H](COS(N)(=O)=O)[C@@H](O)[C@H]3O)n2)c1 [Compound I-51, [(1R,2R,3S,4R)-2,3-dihydroxy-4-{[5-({1-[(4-methylpyridin-2-yl)methyl]-1H-pyrazol-3-yl}carbonyl)pyrimidin-4-yl]amino}cyclopentyl]methyl sulfamate]",< 10,100
"NS(=O)(=O)OC[C@H]1C[C@@H](Nc2ccncc2C(=O)c2ccn(Cc3cccc(Cl)c3)n2)C[C@@H]1O [Compound I-52, {(1R,2S,4R)-4-[(3-{[1-(3-Chlorobenzyl)-1H-pyrazol-3-yl]carbonyl}pyridin-4-yl)amino]-2-hydroxycyclopentyl}methyl sulfamate]",< 10,99
"NS(=O)(=O)OC[C@H]1C[C@@H](Nc2ncncc2C(=O)c2ccn(Cc3ccnc(C(F)(F)F)c3)n2)C[C@@H]1O [Compound I-53, [(1R,2S,4R)-2-hydroxy-4-({5-[(1-{[2-(trifluoromethyl)pyridin-4-yl]methyl}-1H-pyrazol-3-yl)carbonyl]pyrimidin-4-yl}amino)cyclopentyl]methyl sulfamate]",10 to 100,79
